# Key:
# Type in all cases: cell-based
# [1] = target: T1, zebrafish β1 homopentameric GABAA receptor (Danio rerio, UniProt F1QPW7); experiment: two-electrode voltage clamp, Xenopus oocytes, GABA-evoked current; conditions: agonist at 10 mM only; -50 mV, pH 7.5
# T1 construct: gene gabrb1; homopentamer
# T1 sequence (F1QPW7 29-484): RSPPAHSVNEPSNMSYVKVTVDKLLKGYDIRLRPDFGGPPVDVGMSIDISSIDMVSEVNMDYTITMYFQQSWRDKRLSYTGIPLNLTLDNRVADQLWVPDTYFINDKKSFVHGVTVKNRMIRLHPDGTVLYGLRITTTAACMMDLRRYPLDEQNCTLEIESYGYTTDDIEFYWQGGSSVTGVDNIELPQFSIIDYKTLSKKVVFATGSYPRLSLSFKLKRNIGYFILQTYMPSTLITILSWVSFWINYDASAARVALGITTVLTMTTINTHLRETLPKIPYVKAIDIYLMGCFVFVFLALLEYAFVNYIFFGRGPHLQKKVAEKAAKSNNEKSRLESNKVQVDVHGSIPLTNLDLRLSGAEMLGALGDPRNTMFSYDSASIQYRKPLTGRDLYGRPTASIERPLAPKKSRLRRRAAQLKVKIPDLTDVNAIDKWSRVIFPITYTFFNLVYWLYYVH
# [2] = target: T2, zebrafish β4 homopentameric GABAA receptor (Danio rerio, UniProt A0A2R8QJR5); experiment: as above; conditions: agonist at 10 mM only; -50 mV, pH 7.5
# T2 construct: gene gabrb4; homopentamer
# T2 sequence (A0A2R8QJR5 26-482): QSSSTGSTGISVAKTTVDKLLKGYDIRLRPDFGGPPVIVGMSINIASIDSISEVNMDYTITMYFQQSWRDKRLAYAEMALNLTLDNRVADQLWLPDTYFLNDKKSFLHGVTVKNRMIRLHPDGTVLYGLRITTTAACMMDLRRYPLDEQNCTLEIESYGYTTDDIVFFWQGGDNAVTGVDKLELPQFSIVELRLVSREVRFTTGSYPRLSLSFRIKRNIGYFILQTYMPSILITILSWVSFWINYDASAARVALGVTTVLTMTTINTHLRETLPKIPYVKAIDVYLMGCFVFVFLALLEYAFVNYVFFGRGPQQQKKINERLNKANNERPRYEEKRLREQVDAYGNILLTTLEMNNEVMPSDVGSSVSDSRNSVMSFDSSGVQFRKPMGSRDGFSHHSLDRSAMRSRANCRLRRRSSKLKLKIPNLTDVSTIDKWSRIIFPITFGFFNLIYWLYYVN
# [3] = target: T3, zebrafish β3 homopentameric GABAA receptor (Danio rerio, UniProt A0A0R4ILP2); experiment: as above; conditions: agonist at 10 mM only; -50 mV, pH 7.5
# T3 construct: gene gabrb3; homopentamer
# T3 sequence (A0A0R4ILP2 26-498): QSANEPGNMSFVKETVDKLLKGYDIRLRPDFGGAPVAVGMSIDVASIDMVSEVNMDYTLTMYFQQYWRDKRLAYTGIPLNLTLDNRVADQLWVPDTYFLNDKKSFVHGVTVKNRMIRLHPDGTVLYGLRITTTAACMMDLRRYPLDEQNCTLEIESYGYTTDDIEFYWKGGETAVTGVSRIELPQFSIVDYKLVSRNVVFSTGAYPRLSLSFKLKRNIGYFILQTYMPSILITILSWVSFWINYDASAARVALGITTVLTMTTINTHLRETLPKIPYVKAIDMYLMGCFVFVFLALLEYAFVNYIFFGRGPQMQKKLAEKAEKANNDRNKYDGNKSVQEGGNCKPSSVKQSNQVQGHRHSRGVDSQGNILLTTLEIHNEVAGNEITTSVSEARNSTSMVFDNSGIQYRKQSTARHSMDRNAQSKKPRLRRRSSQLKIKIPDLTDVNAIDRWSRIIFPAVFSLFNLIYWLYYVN
# [4] = target: T3, zebrafish β3 homopentameric GABAA receptor; experiment: two-electrode voltage clamp, Xenopus oocytes, etomidate-evoked current
SMILES,"two-electrode voltage clamp, Xenopus oocytes, GABA-evoked current [1]","two-electrode voltage clamp, Xenopus oocytes, GABA-evoked current [2]","two-electrode voltage clamp, Xenopus oocytes, GABA-evoked current [3]",EC50 [4]
NCCCC(=O)O [GABA],either single β subunit yielded small currents,either single β subunit yielded small currents,either single β subunit yielded small currents,
CCOC(=O)c1cncn1[C@H](C)c1ccccc1 [etomidate],,,,30.3 ± 5.7 µM

# From article PMC7973766, “Characterization of zebrafish GABAA receptor subunits” (Scientific Reports, 2021)
